In patent US20130029942A1, “COMPOUNDS AND THERAPEUTICAL USES THEREOF” (Myrexis, Inc., priority 2003, published 2013):

Test system: P388 murine leukemia cell line
Assay: P388 cytotoxicity (ATP-Lite, 72 hours)
Format: cell-based
Settings: Mus musculus, P388, 72 hours
Protocol: A P388 murine leukemia cell line was obtained from NCI, Frederick, Md. P388 cells were cultured in RPMI-1640 supplemented with 10% fetal bovine serum, 2 mM Glutamax, 1 mM sodium pyruvate, 0.1 mM non-essential amino acids and 10 mM HEPES. Cells were grown at 37° C. in a humidified 5% CO2 atmosphere. Exponentially growing P388 cells were plated at 5,000 cells/well in a 96-well flat-bottomed microtiter plate (Corning, Costar #3595). […] Cellular viability was determined 72 hours later by measuring intracellular ATP with ATP-Lite assay system. The effect of compounds on cell viability was calculated by comparing the ATP levels of cells exposed to test compound with those of cells exposed to DMSO. […] Data was analyzed by Prism software (GraphPad; San Diego, Calif.) by fitting it to a sigmoidal dose response curve.

Compound	IC50
COC(=O)CN(C)c1nc(N(C)c2ccc(OC)cc2)c2ccccc2n1 [Example 187, ({4-[(4-Methoxy-phenyl)-methyl-amino]-quinazolin-2-yl}-methyl-amino)-acetic acid methyl ester]	0.11 µM
COc1ccc(N(C)c2nc(C)nc3c2CCCC3)cc1 [Example 188, (4-Methoxy-phenyl)-methyl-(2-methyl-5,6,7,8-tetrahydro-quinazolin-4-yl)-amine]	0.002 µM
COc1ccc(N(C)c2nc(NCCO)nc3ccc(N)cc23)cc1 [Example 189, 2-{6-Amino-4-[(4-methoxy-phenyl)-methyl-amino]-quinazolin-2-ylamino}-ethanol]	0.46 µM
CONc1nc2c(c(N(C)c3ccc(OC)cc3)n1)CCCC2 [Example 190, N-{4-[(4-Methoxy-phenyl)-methyl-amino]-5,6,7,8-tetrahydro-quinazolin-2-yl}-O-methyl-hydroxylamine]	0.006 µM
CCOC(=O)CNc1nc2c(c(N(C)c3ccc(OC)cc3)n1)CCCC2 [Example 191, {4-[(4-Methoxy-phenyl)-methyl-amino]-5,6,7,8-tetrahydro-quinazolin-2-ylamino}-acetic acid ethyl ester]	0.47 µM
CNc1nc2c(c(N(C)c3ccc(OC)cc3)n1)CCCC2 [Example 192, N^4-(4-Methoxy-phenyl)-N^2,N^4-dimethyl-5,6,7,8-tetrahydro-quinazoline-2,4-diamine]	0.019 µM
COc1ccc(N(C)c2nc(NCCO)nc3c2CCCC3)cc1 [Example 194, 2-{4-[(4-Methoxy-phenyl)-methyl-amino]-5,6,7,8-tetrahydro-quinazolin-2-ylamino}-ethanol]	0.02 µM
COc1ccc(N(C)c2nncc3ccc(F)cc23)cc1 [Example 195, (7-Fluoro-phthalazin-1-yl)-(4-methoxy-phenyl)-methyl-amine]	1.5 µM
COc1ccc(N(C)c2nncc3cc(F)ccc23)cc1 [Example 196, (6-Fluoro-phthalazin-1-yl)-(4-methoxy-phenyl)-methyl-amine]	0.33 µM
CONc1nc2c(c(N(C)c3ccc(OC)cc3)n1)CCC2 [Example 197, N-{4-[(4-Methoxy-phenyl)-methyl-amino]-6,7-dihydro-5H-cyclopentapyrimidin-2-yl}-O-methyl-hydroxylamine]	0.008 µM
COc1ccc(N(C)c2nc(OC(C)C)nc3cccc(F)c23)cc1 [Example 198, (5-Fluoro-2-isopropoxy-quinazolin-4-yl)-(4-methoxy-phenyl)-methyl-amine]	0.003 µM
COc1ccc(N(C)c2nc(C(F)(F)F)nc3ccccc23)cc1 [Example 199, (4-Methoxy-phenyl)-methyl-(2-trifluoromethyl-quinazolin-4-yl)-amine]	0.003 µM
CNc1nc2c(c(N(C)c3ccc(OC)cc3)n1)CCC2 [Example 200, N^4-(4-Methoxy-phenyl)-N^2,N^4-dimethyl-6,7-dihydro-5H-cyclopentapyrimidine-2,4-diamine]	0.007 µM
CNc1nc2c(c(N(C)c3ccc(OC)cc3)n1)CCCCC2 [Example 201, N4-(4-Methoxy-phenyl)-N2,N4-dimethyl-6,7,8,9-tetrahydro-5H-cycloheptapyrimidine-2,4-diamine]	0.076 µM
CCOC(=O)CNc1nc2c(c(N(C)c3ccc(OC)cc3)n1)CCC2 [Example 202, {4-[(4-Methoxy-phenyl)-methyl-amino]-6,7-dihydro-5H-cyclopentapyrimidin-2-ylamino}-acetic acid ethyl ester]	0.3 µM
COc1ccc(N(C)c2nc(CNC(C)=O)nc3ccccc23)cc1 [Example 203, N-{4-[(4-Methoxy-phenyl)-methyl-amino]-quinazolin-2-ylmethyl}-acetamide]	0.019 µM
Cc1nc(N(C)c2ccc(N(C)C(=O)OC(C)(C)C)cc2)c2ccccc2n1 [Example 204, Methyl-{4-[methyl-(2-methyl-quinazolin-4-yl)-amino]-phenyl}-carbamic acid tert-butyl ester]	0.46 µM

Compound	IC50
COc1ccc(N(C)c2nc(CN)nc3ccc(F)cc23)cc1 [Example 205, (2-Aminomethyl-6-fluoro-quinazolin-4-yl)-(4-methoxy-phenyl)-methyl-amine]	0.019 µM
COc1ccc(N(C)c2nc(CC#N)nc3ccccc23)cc1 [Example 206, {4-[(4-Methoxy-phenyl)-methyl-amino]-quinazolin-2-yl}-acetonitrile]	0.002 µM
CCOc1ccc(N(C)c2nc(C)nc3ccc([N+](=O)[O-])cc23)cc1 [Example 207, (4-Ethoxy-phenyl)-methyl-(2-methyl-6-nitro-quinazolin-4-yl)-amine]	0.017 µM
COc1ccc(N(C)c2nc(CCl)nc3ccc(Br)cc23)cc1 [Example 208, (6-Bromo-2-chloromethyl-quinazolin-4-yl)-(4-methoxy-phenyl)-methyl-amine]	0.027 µM
Cc1nc(N(C)c2ccc(OC(F)F)cc2)c2cc([N+](=O)[O-])ccc2n1 [Example 209, (4-Difluoromethoxy-phenyl)-methyl-(2-methyl-6-nitro-quinazolin-4-yl)-amine]	0.49 µM
COc1ccc(N(C)c2nc(C)nc3ccc([N+](=O)[O-])cc23)cc1F [Example 210, (3-Fluoro-4-methoxy-phenyl)-methyl-(2-methyl-6-nitro-quinazolin-4-yl)-amine]	0.057 µM
CCOc1ccc(N(C)c2nc(CN)nc3ccccc23)cc1 [Example 211, (2-Aminomethyl-quinazolin-4-yl)-(4-ethoxy-phenyl)-methyl-amine]	0.015 µM
COc1ccc(N(C)c2nc(CCN)nc3ccccc23)cc1 [Example 212, [2-(2-Amino-ethyl)-quinazolin-4-yl]-(4-methoxy-phenyl)-methyl-amine]	0.25 µM
COc1ccc(N(C)c2nc(CN)nc3ccc(N)cc23)cc1 [Example 213, 2-Aminomethyl-N4-(4-methoxy-phenyl)-N4-methyl-quinazoline-4,6-diamine]	0.17 µM
CCOc1ccc(N(C)c2nc(C)nc3ccc(N)cc23)cc1 [Example 214, N^4-(4-Ethoxy-phenyl)-2,N^4-dimethyl-quinazoline-4,6-diamine]	0.009 µM
COc1ccc(N(C)c2nc(C)nc3ccc(N)cc23)cc1F [Example 215, N^4-(3-Fluoro-4-methoxy-phenyl)-2,N^4-dimethyl-quinazoline-4,6-diamine]	0.003 µM
Cc1nc(N(C)c2ccc(OC(F)F)cc2)c2cc(N)ccc2n1 [Example 216, N^4-(4-Difluoromethoxy-phenyl)-2,N^4-dimethyl-quinazoline-4,6-diamine]	0.02 µM
CC(C)Oc1ccc(N(C)c2nc(CN)nc3ccccc23)cc1 [Example 217, (2-Aminomethyl-quinazolin-4-yl)-(4-isopropoxy-phenyl)-methyl-amine]	0.018 µM
COc1ccc(N(C)c2nc(CN)nc3ccccc23)c(F)c1 [Example 218, (2-Aminomethyl-quinazolin-4-yl)-(2-fluoro-4-methoxy-phenyl)-methyl-amine]	0.012 µM
COc1ccc(N(C)c2nc(CN)nc3ccc(Br)cc23)cc1 [Example 219, (2-Aminomethyl-6-bromo-quinazolin-4-yl)-(4-methoxy-phenyl)-methyl-amine]	0.25 µM
CC(C)Oc1ccc(N(C)c2nc(CN)nc3ccc(N)cc23)cc1 [Example 220, 2-Aminomethyl-N^4-(4-isopropoxy-phenyl)-N^4-methyl-quinazoline-4,6-diamine]	0.87 µM
